Patent publication US6753330B2, “Solid dispersion composition” (Kowa Co., Ltd., priority 2002, dated 2004)

Experiments:
[1] = Solubility of compound 1 in water; assay type: physicochemical
[2] = system: production of interleukin 1β; settings: disclosed in JP Laid-Open No. 2000-198776; cited from earlier work

solubility in water (in words) [1]: exceptionally poor solubility in water
Compound: CSc1ccc(-c2nn(Cc3ccccc3)c(=O)cc2-c2ccc(Cl)cc2)cc1 [compound 1, 2-benzyl-5-(4-chlorophenyl)-6-[4-(methylthio)phenyl]-2H-pyridazin-3-one]
effect for suppressing production of interleukin 1β (in words) [2]: excellent effect
